Consider 17 molecules from US5656726A, “Peptide inhibitors of urokinase receptor activity” (Chiron Corporation, priority 1995, dated 1997).

Each structure is given as a SMILES string. Where two headings read alike, the source gives them in different places. Peptide text beside a SMILES is read from it.

For the assay, the target named is T1, recombinant human urokinase receptor (truncated, soluble; suPAR) (Homo sapiens, UniProt Q03405).
T1 construct: expressed as a truncated, soluble molecule as described previously for mouse L-cells (Masucci et al., J Biol Chem (1991) 266:8655); made in house
The assay can be described thus: 125I-ATF competition binding on immobilized soluble recombinant human urokinase receptor. Particulars: synthesized peptide, read-out: Affinity.

Setting [1] is: corrected to 100 pM ATF, 0.3 μg/mL suPAR conditions, corrections about 3 × from previous assay conditions.
The mark [2] stands for this setting: assay performed at 100 pM ATF, 0.3 μg/mL suPAR in 200 μL (starred values).

T1 sequence (Q03405 23-299 limits assumed): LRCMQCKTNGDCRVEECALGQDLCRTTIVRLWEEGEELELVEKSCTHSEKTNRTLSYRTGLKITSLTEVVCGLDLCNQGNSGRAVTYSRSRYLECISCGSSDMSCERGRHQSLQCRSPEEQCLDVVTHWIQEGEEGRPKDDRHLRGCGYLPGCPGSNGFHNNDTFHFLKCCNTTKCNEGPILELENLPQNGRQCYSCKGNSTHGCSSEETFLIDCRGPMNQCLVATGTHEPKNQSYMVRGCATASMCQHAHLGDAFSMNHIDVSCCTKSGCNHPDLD

Turning to `CSCC[C@H](NC(=O)[C@@H](NC(=O)[C@H](CC(N)=O)NC(=O)[C@H](CO)NC(=O)[C@H](CC(C)C)NC(=O)[C@H](Cc1ccccc1)NC(=O)[C@H](Cc1c[nH]c2ccccc12)NC(=O)[C@H](C)NC(=O)[C@H](CCC(=O)O)NC(=O)[C@H](C)N)[C@@H](C)O)C(=O)N[C@@H](CCCCN)C(=O)N[C@@H](C)C(=O)N[C@@H](CC(C)C)C(=O)N[C@@H](CO)C(=O)N[C@@H](C)C(=O)N[C@@H](CCCNC(=N)N)C(=O)N[C@@H](CC(C)C)C(N)=O` (H-AEAWFLSNTMKALSARL-NH2), the Kd under setting [1] came to 4 µM.
For the molecule `CC(C)C[C@H](NC(=O)[C@H](CO)NC(=O)[C@H](CO)NC(=O)[C@H](Cc1ccc(O)cc1)NC(=O)[C@@H](NC(=O)[C@H](Cc1c[nH]cn1)NC(=O)[C@H](CCC(=O)O)NC(=O)[C@H](C)N)[C@@H](C)O)C(=O)N[C@@H](Cc1c[nH]c2ccccc12)C(=O)N[C@@H](CC(=O)O)C(=O)N[C@H](C(=O)N[C@@H](Cc1ccc(O)cc1)C(=O)N[C@@H](CO)C(=O)N1CCC[C@H]1C(=O)N[C@@H](CC(C)C)C(=O)N[C@@H](C)C(=O)N[C@@H](Cc1ccccc1)C(N)=O)[C@@H](C)O` (H-AEHTYSSLWDTYSPLAF-NH2), the Kd under setting [2] was found to be 0.35 µM.
Take `CC[C@H](C)[C@H](NC(=O)[C@H](CCC(=O)O)NC(=O)[C@H](C)N)C(=O)N[C@@H](CCCCN)C(=O)N[C@H](C(=O)N[C@@H](CC(=O)O)C(=O)N[C@@H](CCC(=O)O)C(=O)N[C@@H](CCCCN)C(=O)N[C@@H](CCSC)C(=O)NCC(=O)N[C@@H](CC(C)C)C(=O)N[C@@H](Cc1c[nH]c2ccccc12)C(=O)N[C@@H](CC(=O)O)C(=O)N[C@@H](CC(C)C)C(=O)N[C@@H](Cc1ccc(O)cc1)C(=O)N[C@@H](CO)C(=O)N[C@@H](CCSC)C(N)=O)[C@@H](C)O` (H-AEIKTDEKMGLWDLYSM-NH2): the Kd under setting [2] turned out to be 25 µM.
As to `CC[C@H](C)[C@H](NC(=O)[C@H](CCC(=O)O)NC(=O)[C@H](C)N)C(=O)N[C@@H](CC(C)C)C(=O)N[C@@H](CC(N)=O)C(=O)N[C@@H](Cc1ccccc1)C(=O)N1CCC[C@H]1C(=O)N[C@@H](CC(C)C)C(=O)N[C@@H](Cc1c[nH]c2ccccc12)C(=O)N[C@@H](Cc1c[nH]cn1)C(=O)N[C@@H](CCC(=O)O)C(=O)N1CCC[C@H]1C(=O)N[C@@H](CC(C)C)C(=O)N[C@@H](Cc1c[nH]c2ccccc12)C(=O)N[C@@H](CO)C(=O)N[C@H](C(=O)N[C@@H](CCC(=O)O)C(N)=O)[C@@H](C)O` (H-AEILNFPLWHEPLWSTE-NH2), under setting [2], the Kd is 15 µM.
As for `CC[C@H](C)[C@H](NC(=O)[C@H](CCC(=O)O)NC(=O)[C@H](C)N)C(=O)N[C@@H](CO)C(=O)N[C@@H](Cc1ccccc1)C(=O)N[C@@H](CO)C(=O)N[C@@H](CCC(=O)O)C(=O)N[C@@H](CC(C)C)C(=O)N[C@@H](CCSC)C(=O)N[C@@H](Cc1c[nH]c2ccccc12)C(=O)N[C@@H](CC(C)C)C(=O)N[C@@H](CCCNC(=N)N)C(=O)N[C@@H](CO)C(=O)N[C@H](C(=O)N1CCC[C@H]1C(=O)N[C@@H](C)C(=O)N[C@@H](Cc1ccccc1)C(N)=O)[C@@H](C)O` (H-AEISFSELMWLRSTPAF-NH2), the Kd under setting [2] was found to be 6 µM.
For the molecule `CSCC[C@H](NC(=O)[C@H](Cc1c[nH]c2ccccc12)NC(=O)[C@H](CC(C)C)NC(=O)[C@H](CC(=O)O)NC(=O)[C@H](CC(C)C)NC(=O)[C@H](CCC(=O)O)NC(=O)[C@H](C)N)C(=O)N[C@@H](CCCNC(=N)N)C(=O)N[C@@H](Cc1c[nH]cn1)C(=O)N[C@@H](Cc1ccc(O)cc1)C(=O)N1CCC[C@H]1C(=O)N[C@@H](CC(C)C)C(=O)N[C@@H](CO)C(=O)N[C@@H](Cc1ccccc1)C(=O)N[C@@H](CO)C(=O)N[C@@H](CC(N)=O)C(=O)N[C@@H](CCCNC(=N)N)C(N)=O` (H-AELDLWMRHYPLSFSNR-NH2), the Kd under setting [2] worked out at 0.8 µM.
For `CC(C)C[C@H](NC(=O)[C@H](CCC(=O)O)NC(=O)[C@H](C)N)C(=O)N1CCC[C@H]1C(=O)N[C@@H](CCCNC(=N)N)C(=O)N[C@H](C(=O)N[C@@H](CC(N)=O)C(=O)N1CCC[C@H]1C(=O)N[C@H](C(=O)N[C@H](C(=O)N[C@@H](C)C(=O)N[C@H](C(=O)N[C@@H](CCCCN)C(=O)N[C@@H](CC(N)=O)C(=O)N1CCC[C@H]1C(=O)N[C@@H](CO)C(=O)N[C@@H](Cc1ccccc1)C(N)=O)C(C)C)[C@@H](C)O)C(C)C)[C@@H](C)O` (H-AELPRTNPVTAVKNPSF-NH2), under setting [1], the Kd was greater than 50 µM.
With `CC[C@H](C)[C@H](NC(=O)[C@H](Cc1c[nH]c2ccccc12)NC(=O)[C@H](CC(C)C)NC(=O)[C@H](CC(=O)O)NC(=O)[C@H](C)NC(=O)[C@H](CCC(=O)O)NC(=O)[C@H](CO)NC(=O)[C@H](CC(C)C)NC(=O)[C@H](CCC(=O)O)NC(=O)[C@H](C)N)C(=O)N[C@H](C(=O)N[C@@H](Cc1c[nH]c2ccccc12)C(=O)N[C@@H](Cc1ccccc1)C(=O)NCC(=O)N[C@@H](CCSC)C(=O)NCC(=O)N[C@@H](CO)C(N)=O)[C@@H](C)O` (H-AELSEADLWITWFGMGS-NH2), under setting [2], the Kd amounted to 20 µM.
For `CC(C)C[C@H](NC(=O)CNC(=O)[C@@H]1CCCN1C(=O)[C@H](CC(N)=O)NC(=O)[C@H](Cc1ccccc1)NC(=O)[C@H](Cc1ccccc1)NC(=O)[C@H](Cc1ccccc1)NC(=O)[C@H](CO)NC(=O)[C@H](Cc1c[nH]c2ccccc12)NC(=O)[C@H](CC(N)=O)NC(=O)[C@H](CC(C)C)NC(=O)[C@H](CC(C)C)NC(=O)[C@H](C)NC(=O)[C@@H]1CCCN1C(=O)[C@H](CCC(=O)O)NC(=O)[C@H](C)N)C(=O)N[C@@H](Cc1c[nH]cn1)C(N)=O` (H-AEPALLNWSFFFNPGLH-NH2), the Kd under setting [1] stood at 3 µM.
On the same count and under the same terms, the figure for `CSCC[C@H](NC(=O)[C@H](C)NC(=O)[C@H](CC(C)C)NC(=O)[C@@H]1CCCN1C(=O)[C@@H]1CCCN1C(=O)[C@H](CC(C)C)NC(=O)[C@H](CO)NC(=O)[C@H](Cc1ccc(O)cc1)NC(=O)[C@H](CC(C)C)NC(=O)[C@H](CO)NC(=O)[C@H](Cc1c[nH]c2ccccc12)NC(=O)[C@H](CC(C)C)NC(=O)[C@H](CC(=O)O)NC(=O)[C@H](CC(C)C)NC(=O)[C@@H]1CCCN1C(=O)[C@H](CCC(=O)O)NC(=O)[C@H](C)N)C(N)=O` (H-AEPLDLWSLYSLPPLAM-NH2) is 5 µM; for `CC(C)C[C@H](NC(=O)[C@H](CO)NC(=O)[C@H](CC(C)C)NC(=O)[C@@H]1CCCN1C(=O)[C@H](CCC(=O)O)NC(=O)[C@H](C)N)C(=O)N[C@@H](Cc1ccc(O)cc1)C(=O)N[C@@H](CCC(N)=O)C(=O)N[C@@H](CCCCN)C(=O)N[C@@H](CCCCN)C(=O)N[C@H](C(=O)N[C@@H](CC(C)C)C(=O)N[C@@H](CCCNC(=N)N)C(=O)N[C@@H](Cc1c[nH]cn1)C(=O)N[C@@H](Cc1ccccc1)C(=O)N[C@@H](C)C(=O)N[C@@H](CC(N)=O)C(N)=O)[C@@H](C)O` (H-AEPLSLYQKKTLRHFAN-NH2) it is greater than 50 µM.
With `CSCC[C@H](NC(=O)[C@@H]1CCCN1C(=O)[C@H](CCC(=O)O)NC(=O)[C@H](C)N)C(=O)N1CCC[C@H]1C(=O)N[C@@H](Cc1c[nH]cn1)C(=O)N[C@@H](CO)C(=O)N[C@@H](CC(C)C)C(=O)N[C@@H](CC(N)=O)C(=O)N[C@@H](Cc1ccccc1)C(=O)N[C@@H](CO)C(=O)N[C@@H](CCC(N)=O)C(=O)N[C@@H](Cc1ccc(O)cc1)C(=O)N[C@@H](CC(C)C)C(=O)N[C@@H](Cc1c[nH]c2ccccc12)C(=O)N[C@@H](Cc1ccc(O)cc1)C(=O)N[C@H](C(N)=O)[C@@H](C)O` (H-AEPMPHSLNFSQYLWYT-NH2), the Kd under setting [2] was 0.015 µM.
Regarding `CC(C)C[C@H](NC(=O)[C@H](CCCNC(=N)N)NC(=O)[C@H](CC(C)C)NC(=O)[C@@H]1CCCN1C(=O)[C@H](Cc1ccccc1)NC(=O)[C@H](CCC(N)=O)NC(=O)[C@H](Cc1ccc(O)cc1)NC(=O)[C@H](CC(C)C)NC(=O)[C@H](CCC(N)=O)NC(=O)[C@H](Cc1c[nH]c2ccccc12)NC(=O)[C@H](CC(C)C)NC(=O)[C@@H](NC(=O)[C@@H]1CCCN1C(=O)[C@H](CCC(=O)O)NC(=O)[C@H](C)N)[C@@H](C)O)C(=O)N[C@@H](CO)C(=O)NCC(N)=O` (H-AEPTLWQLYQFPLRLSG-NH2), under setting [1], the Kd was found to be 5 µM.
For `CC[C@H](C)[C@H](NC(=O)[C@H](CO)NC(=O)[C@@H](NC(=O)[C@H](CC(C)C)NC(=O)[C@@H](NC(=O)[C@@H]1CCCN1C(=O)[C@H](CC(C)C)NC(=O)[C@H](CO)NC(=O)[C@H](CCC(=O)O)NC(=O)[C@H](C)N)[C@@H](C)O)[C@@H](C)O)C(=O)N[C@@H](CC(C)C)C(=O)N[C@@H](Cc1c[nH]c2ccccc12)C(=O)NCC(=O)N[C@@H](CCCCN)C(=O)N[C@@H](CCC(=O)O)C(=O)N[C@@H](CO)C(=O)N[C@H](C(N)=O)C(C)C` (H-AESLPTLTSILWGKESV-NH2), the Kd under setting [1] came out at 7 µM.
For `CC(C)C[C@H](NC(=O)[C@@H](NC(=O)CNC(=O)[C@@H](NC(=O)[C@H](CCC(N)=O)NC(=O)[C@H](CO)NC(=O)[C@H](CCC(=O)O)NC(=O)[C@H](C)N)[C@@H](C)O)[C@@H](C)O)C(=O)N[C@@H](CC(N)=O)C(=O)N[C@H](C(=O)N[C@@H](CC(C)C)C(=O)N[C@@H](Cc1ccccc1)C(=O)N[C@@H](Cc1c[nH]c2ccccc12)C(=O)N[C@@H](CC(N)=O)C(=O)N[C@H](C(=O)N[C@@H](CC(C)C)C(=O)N[C@@H](CCCNC(=N)N)C(N)=O)[C@@H](C)O)[C@@H](C)O` (H-AESQTGTLNTLFWNTLR-NH2), under setting [1], the Kd is 7 µM.
With `CC[C@H](C)[C@H](NC(=O)[C@H](CCCNC(=N)N)NC(=O)[C@H](Cc1c[nH]c2ccccc12)NC(=O)[C@H](CC(C)C)NC(=O)[C@H](CO)NC(=O)[C@H](CO)NC(=O)[C@H](CCC(=O)O)NC(=O)[C@H](C)N)C(=O)N[C@@H](Cc1ccccc1)C(=O)N[C@@H](CO)C(=O)N1CCC[C@H]1C(=O)N[C@@H](CO)C(=O)N[C@@H](C)C(=O)N[C@@H](CC(C)C)C(=O)N[C@@H](CCSC)C(=O)N[C@@H](CCSC)C(=O)N[C@@H](CO)C(N)=O` (H-AESSLWRIFSPSALMMS-NH2), the Kd under setting [1] turned out to be 7 µM.
The same measure, in the same setting: in the case of `CSCC[C@H](NC(=O)[C@H](CO)NC(=O)[C@@H]1CCCN1C(=O)[C@H](Cc1c[nH]c2ccccc12)NC(=O)[C@H](C)NC(=O)[C@H](Cc1ccc(O)cc1)NC(=O)[C@H](CCCNC(=N)N)NC(=O)[C@@H](NC(=O)[C@H](Cc1c[nH]c2ccccc12)NC(=O)[C@H](CC(C)C)NC(=O)[C@H](CO)NC(=O)[C@H](CO)NC(=O)[C@H](CCC(=O)O)NC(=O)[C@H](C)N)[C@@H](C)O)C(=O)N1CCC[C@H]1C(=O)N[C@@H](CO)C(=O)N[C@@H](Cc1ccc(O)cc1)C(N)=O` (H-AESSLWTRYAWPSMPSY-NH2) it was 0.35 µM.
